Read-outs that look alike come from different tables or passages of the source. No end group written: not given here.
Tests used:
DPP-4 [1] = molecular target: T1, DPP-4 (Homo sapiens, UniProt P27487); assay: DPP-4 inhibitory activity (Gly-Pro-p-nitroanilide substrate); type: biochemical; settings: for IC50: 25 μl sample + 25 μl Gly-Pro-p-nitroanilide (3.2 mM), preincubated 37 °C 10 min, 50 μl DPP-4 (0.02 U/ml), 60 min, 100 mM tris buffer (pH 7.6), absorbance at 405 nm
T1 construct: purchased Sigma-Aldrich Co., St. Louis, MO, USA
T1 sequence (P27487 whole entry, species assumed): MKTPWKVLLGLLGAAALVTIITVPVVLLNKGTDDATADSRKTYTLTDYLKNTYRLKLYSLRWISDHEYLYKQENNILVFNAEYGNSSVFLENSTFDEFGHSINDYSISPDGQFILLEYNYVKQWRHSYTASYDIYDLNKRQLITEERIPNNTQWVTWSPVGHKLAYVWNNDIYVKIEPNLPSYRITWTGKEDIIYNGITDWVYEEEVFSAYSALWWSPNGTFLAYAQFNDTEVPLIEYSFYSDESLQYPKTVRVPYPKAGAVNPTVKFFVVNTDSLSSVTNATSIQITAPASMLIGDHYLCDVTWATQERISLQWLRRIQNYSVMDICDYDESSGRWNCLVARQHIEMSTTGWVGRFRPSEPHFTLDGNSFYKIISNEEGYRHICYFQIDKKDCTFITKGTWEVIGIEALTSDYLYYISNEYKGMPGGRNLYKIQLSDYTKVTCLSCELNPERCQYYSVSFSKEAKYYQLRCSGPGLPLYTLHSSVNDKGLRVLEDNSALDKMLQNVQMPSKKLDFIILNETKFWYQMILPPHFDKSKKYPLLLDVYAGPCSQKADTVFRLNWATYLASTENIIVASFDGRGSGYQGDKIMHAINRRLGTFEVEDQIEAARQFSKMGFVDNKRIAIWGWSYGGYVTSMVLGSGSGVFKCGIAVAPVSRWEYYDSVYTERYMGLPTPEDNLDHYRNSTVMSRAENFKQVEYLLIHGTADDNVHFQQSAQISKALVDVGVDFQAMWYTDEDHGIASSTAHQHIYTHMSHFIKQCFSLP
Method: Determination of DPP-4 inhibitory activity
The DPP-4 inhibitory activity of the synthesized peptides was determined as previously described, with slight modifications. Briefly, 25 μl of the sample and 25 μl of Gly-Pro-p-nitroanilide (3.2 mM) were preincubated at 37 °C for 10 min before 50 μl of DPP-4 (0.02 U/ml) was added to the mixture (Sigma-Aldrich Co., St. Louis, MO, USA). After 60 min, the reaction was halted by adding 100 μl of 1 M sodium acetate solution. The absorbance at 405 nm was measured using a microplate reader (Thermo Fisher Scientific, Waltham, MA, USA). DPP-4 inhibition (DI) was calculated as follows: DI%=1−Asample−Asample blank/Apositive−Anegative×100% (5) where A(sample) represents the optical density of DPP-4 in the presence of both the substrate and peptide. A(sample blank) represents the optical density of the 100 mM tris buffer (pH 7.6). A(positive) represents the optical density of the enzyme and substrate in the absence of an inhibitor. A(negative) represents the optical density of the enzyme in the absence of substrate and inhibitor.

DPP-4 [2] = molecular target: T1, DPP-4; settings: methodologies differ among studies; cited from earlier work

For “FVAPFPEV [peptide from α-S1-casein, pepsin (pH 1.3), pepsin (pH > 2); synthesized]”, the “DPP-4 inhibitory effect (in words)” value (DPP-4 [1]; in vitro) was “poor inhibitory effect”.
Substance GPVRGPF [GPVRGPF] has an IC50 (DPP-4 [1]) of 0.645 mM.
For HPHPHL [HPHPHL], the IC50 (DPP-4 [1]) was 1.61 mM.
For “TPEVDDEALEK [peptide from previous study [6]]”, the IC50 (DPP-4 [2]) is listed as 320 µM.
